Drawing on BindingDB's records for doi:10.1016/S0960-894X(01)80156-6 (1994), this text covers IC50 for four compounds.

A word on the pIC50: it is −log10 of the IC50, conventionally taken in molar units. Lower therefore signals a high IC50.

pIC50: −log10 of the molar value. Where a SMILES comes first, the peptide text is derived from it. Bridges are numbered along the chain shown (N, C = ends). [ ]: non-standard residue; d: D form. Aoc = NCCCCCCCC(=O)O; Ava = NCCCCC(=O)O

This test addresses Endothelin A receptor (Oryctolagus cuniculus). Put plainly: Binding affinity against Endothelin A receptor in rabbit renal artery vascular smooth muscle membrane (ET-A).
The compound `CC[C@H](C)[C@H](NC(=O)[C@H](CC(=O)O)NC(=O)[C@H](CC(C)C)NC(=O)[C@H](Cc1c[nH]cn1)NC(=O)[C@@H]1CSSC[C@H](N)C(=O)N[C@@H](CO)C(=O)NCCCCC(=O)N[C@@H](C(C)C)C(=O)N[C@@H](Cc2ccc(O)cc2)C(=O)N[C@@H](Cc2ccccc2)C(=O)N1)C(=O)N[C@H](C(=O)N[C@@H](Cc1c[nH]c2ccccc12)C(=O)O)[C@@H](C)CC` [Trp-Ile-Ile-Asp-Leu-Hisc(Cys-Ser-Apa-Val-Tyr-Phe-Cys)] (H-CS[Ava]VYFCHLDIIW-OH; disulfide 1-7) gave a pIC50 of 5.60.

`CC[C@H](C)[C@H](NC(=O)[C@H](CC(=O)O)NC(=O)[C@H](CC(C)C)NC(=O)[C@H](Cc1cnc[nH]1)NC(=O)[C@@H]1CSSC[C@H](N)C(=O)N[C@@H](CO)C(=O)NCCCCCCCC(=O)N[C@@H](C(C)C)C(=O)N[C@@H](Cc2ccc(O)cc2)C(=O)N[C@@H](Cc2ccccc2)C(=O)N1)C(=O)N[C@H](C(=O)N[C@@H](Cc1c[nH]c2ccccc12)C(=O)O)[C@@H](C)CC` [Trp-Ile-Ile-Asp-Leu-Hisc(Cys-Ser-Aoa-Val-Tyr-Phe-Cys)] (H-CS[Aoc]VYFCHLDIIW-OH; disulfide 1-7) showed a pIC50 of 5.74. This pIC50 and that of the compound before are within 0.2 log units of each other.

`CC[C@H](C)[C@H](NC(=O)[C@H](CC(=O)O)NC(=O)[C@H](CC(C)C)NC(=O)[C@H](Cc1c[nH]cn1)NC(=O)[C@@H]1CSSC[C@H](N)C(=O)N[C@@H](CO)C(=O)N[C@@H](CO)C(=O)N[C@@H](C(C)C)C(=O)N[C@@H](Cc2ccc(O)cc2)C(=O)N[C@@H](Cc2ccccc2)C(=O)N1)C(=O)N[C@H](C(=O)N[C@@H](Cc1c[nH]c2ccccc12)C(=O)O)[C@@H](C)CC` [Trp-Ile-Ile-Asp-Leu-Hisc(Cys-Ser-Ser-Val-Tyr-Phe-Cys)] (H-CSSVYFCHLDIIW-OH; disulfide 1-7) showed a pIC50 of 5.70.

`CC[C@H](C)[C@H](NC(=O)[C@H](CC(=O)O)NC(=O)[C@H](CC(C)C)NC(=O)[C@H](Cc1c[nH]cn1)NC(=O)[C@@H]1CSSC[C@H](N)C(=O)N[C@@H](CO)C(=O)N[C@@H](C(C)C)C(=O)N[C@@H](Cc2ccc(O)cc2)C(=O)N[C@@H](Cc2ccccc2)C(=O)N1)C(=O)N[C@H](C(=O)N[C@@H](Cc1c[nH]c2ccccc12)C(=O)O)[C@@H](C)CC` [Trp-Ile-Ile-Asp-Leu-Hisc(Cys-Ser-Val-Tyr-Phe-Cys)] (H-CSVYFCHLDIIW-OH; disulfide 1-6): the pIC50 is 5.42.
